Experiments:
[1] = system: Boophilus microplus; experiment: Boophilus microplus test (BOOPMI injection), Example 1; assay type: in vivo; settings: application rate 20 μg/animal, injected into abdomen, after 7 days
Outline: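 Compound in DMSO, diluted with water, injected into the abdomen of engorged ticks, which were then held in a climate-controlled room. Efficacy was scored after 7 days from fertile egg laying, with 100% meaning no tick laid fertile eggs.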

[2] = system: Ctenocephalides felis; experiment: Ctenocephalides felis oral (CTECFE), Example 2; assay type: in vivo; settings: application rate 20 ppm in citrated cow's blood, after 2 days
Experimental: (§1) Ctenocephalides felis Oral ([…]) • Solvent: 1 part by weight of dimethyl sulphoxide For the purpose of preparing an active ingredient formulation, 10 mg of active ingredient are mixed with 0.5 ml of dimethyl sulphoxide. A portion of the concentrate was diluted with citrated cow's blood and the desired concentration was prepared. 20 unfed adult fleas (Ctenocephalides felis) are placed into a chamber sealed at the top and bottom with gauze. A metal cylinder with its lower end sealed with Parafilm is placed onto the chamber. The cylinder contains the blood-active ingredient preparation, which can be consumed by the fleas through the Parafilm membrane. After 2 days, the kill rate in % is determined. 100% means that all fleas were killed; 0% means that no fleas were killed.

[3] = system: Lucilia cuprina larvae; experiment: Lucilia cuprina test (LUCICU), Example 3; assay type: in vivo; settings: application rate 20 ppm, treated horsemeat, after 2 days
Experimental: Lucilia cuprina Test (LUCICU) • Solvent: dimethyl sulphoxide To prepare an active ingredient formulation, 10 mg of active ingredient are mixed with 0.5 ml of dimethyl sulphoxide, and the concentrate is diluted with water to the desired concentration. Vessels containing horsemeat which has been treated with the active ingredient formulation of the desired concentration are populated with Lucilia cuprina larvae. After 2 days, the kill rate in % is determined. 100% means that all larvae were killed; 0% means that no larvae were killed.

[4] = system: armyworm (Spodoptera frugiperda); experiment: Spodoptera frugiperda test (SPODFR spray treatment), Example 6; assay type: in vivo; settings: application rate 20 g/ha, maize leaf discs sprayed, after 7 days
Experimental: Spodoptera frugiperda Test (SPODFR Spray Treatment)
(§2) • Solvent: 78.0 parts by weight of acetone • 1.5 parts by weight of dimethylformamide • Emulsifier: 0.5 part by weight of alkylaryl polyglycol ether
To prepare an active ingredient formulation, 1 part by weight of active ingredient was mixed with the stated amounts of solvent and emulsifier, and the concentrate was diluted with emulsifier-containing water to the desired concentration. Leaf discs from maize (Zea mays) are sprayed with an active ingredient formulation of the desired concentration and, after drying, populated with caterpillars of the armyworm (Spodoptera frugiperda).
After 7 days, the efficacy in % is determined. 100% means that all caterpillars were killed; 0% means that no caterpillars were killed.

[5] = system: mustard beetle (Phaedon cochleariae); experiment: Phaedon test (PHAECO spray treatment), Example 7; assay type: in vivo; settings: application rate 20 g/ha, china cabbage leaf discs sprayed, after 7 days
Outline: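 Spray formulation (acetone/DMF with alkylaryl polyglycol ether, diluted in emulsifier-containing water) applied to Chinese cabbage leaf discs, which were dried and then stocked with mustard beetle larvae. Efficacy scored at 7 days as % larvae killed (100% all, 0% none).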

[6] = system: Boophilus microplus; experiment: Boophilus microplus test (BOOPMI injection), Example 11; assay type: in vivo; settings: application rate 20 μg/animal, injected into abdomen, after 7 days
Outline: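 Efficacy rated from fertile egg laying: 100% means none of the ticks laid fertile eggs, read after 7 days. Compound, dissolved and diluted in DMSO, was delivered by abdominal injection, and ticks were kept in dishes under climate control.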

[7] = system: Musca domestica adults; experiment: Musca domestica test (MUSCDO), Example 14; assay type: in vivo; settings: application rate 100 ppm, treated sponge, after 2 days
Outline: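 Compound dissolved in DMSO and diluted in water to the test concentration, then applied to a sponge in vessels holding adult flies. Percent kill scored after 2 days (100% = all flies dead).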

[8] = system: green peach aphid (Myzus persicae); experiment: Myzus test (MYZUPE spray treatment), Example 17; assay type: in vivo; settings: china cabbage leaf discs sprayed, after 6 days
Outline: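 Efficacy recorded at 6 days as % kill, where 100% means every aphid dead and 0% none. Spray applied to Brassica pekinensis leaf discs bearing mixed-stage aphids; active ingredient dissolved in acetone with dimethylformamide and emulsifier, then diluted with emulsifier-containing water.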

[9] = logP by HPLC on reverse-phase column (EEC Directive 79/831 Annex V.A8); assay type: physicochemical; settings: for logP: HPLC-MS
Experimental: The logP values reported in the above Tables and Preparation Examples were determined according to EEC Directive 79/831 Annex V.A8 by HPLC (High Performance Liquid Chromatography) on a reverse-phase column (C18). Temperature 43° C.

[10] = system: green peach aphid (Myzus persicae); experiment: Myzus test (MYZUPE spray treatment), Example 5; assay type: in vivo; settings: application rate 20 g/ha, china cabbage leaf discs sprayed, after 6 days
Experimental: Myzus Test (MYZUPE Spray Treatment)
• Solvent: 78 parts by weight of acetone • 1.5 parts by weight of dimethylformamide • Emulsifier: 0.5 part by weight of alkylaryl polyglycol ether
To prepare an active ingredient formulation, 1 part by weight of active ingredient is mixed with the stated amounts of solvent and emulsifier, and the concentrate is diluted with emulsifier-containing water to the desired concentration. Leaf discs from china cabbage (Brassica pekinensis) infested by all stages of the green peach aphid (Myzus persicae) are sprayed with an active ingredient formulation of the desired concentration.
After 6 days, the efficacy in % is determined. 100% means that all aphids were killed; 0% means that no aphids were killed.

[11] = system: red spider mite (Tetranychus urticae); experiment: Tetranychus test, OP-resistant (TETRUR spray treatment), Example 8; assay type: in vivo; settings: application rate 20 g/ha, common bean leaf discs sprayed, after 6 days
Outline: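 Bean (Phaseolus vulgaris) leaf discs carrying all stages of OP-resistant Tetranychus urticae sprayed with compound in acetone/DMF with emulsifier, diluted in water to the test concentration. Mortality scored after 6 days as % efficacy (100% = all mites killed).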

[12] = system: Ctenocephalides felis; experiment: Ctenocephalides felis oral (CTECFE), Example 12; assay type: in vivo; settings: application rate 100 ppm in citrated cow's blood, after 2 days
Experimental: as §1, with “preparing an appropriate active ingredient” for “preparing an active ingredient”, “the concentrate is diluted with” for “the concentrate was diluted with”, “desired concentration is established. About 20 unfed” for “desired concentration was prepared. 20 unfed”

[13] = system: armyworm (Spodoptera frugiperda); experiment: Spodoptera frugiperda test (SPODFR spray treatment), Example 15; assay type: in vivo; settings: maize leaf discs sprayed, after 7 days
Outline: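 Caterpillars placed on dried, sprayed Zea mays leaf discs; formulation of acetone, dimethylformamide and emulsifier diluted with emulsifier-containing water to test concentration. Percent kill scored on day 7.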

[14] = system: mustard beetle (Phaedon cochleariae); experiment: Phaedon test (PHAECO spray treatment), Example 16; assay type: in vivo; settings: Phaedon cochleariae, foliar; application rate 500 g/ha, china cabbage leaf discs sprayed, after the desired time; read-out: efficacy in %
Outline: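 Chinese cabbage leaf discs sprayed with acetone/DMF-emulsifier formulation of active ingredient diluted in emulsifier-containing water, then infested with mustard beetle larvae after drying. Efficacy scored as % larval kill (100% = all killed, 0% = none) after the chosen time.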

[15] = system: red spider mite (Tetranychus urticae); experiment: Tetranychus test; OP-resistant (TETRUR spray treatment), Example 18; assay type: in vivo; settings: Tetranychus urticae, foliar, 144 h; application rate 500 g/ha, common bean leaf discs sprayed, after 6 days; read-out: efficacy in %
Experimental: Tetranychus Test; OP-Resistant (TETRUR Spray Treatment)
as §2
To prepare an appropriate active ingredient formulation, 1 part by weight of active ingredient is mixed with the stated amounts of solvent and emulsifier, and the concentrate is diluted with emulsifier-containing water to the desired concentration. Leaf discs from the common bean (Phaseolus vulgaris) infested by all stages of the red spider mite (Tetranychus urticae) are sprayed with an active ingredient formulation of the desired concentration.
After 6 days, the efficacy in % is determined. 100% means that all spider mites were killed; 0% means that no spider mites were killed.

[16] = system: Boophilus microplus females of the SP-resistant Parkhurst strain; experiment: Boophilus microplus test (DIP), Example 10; assay type: in vivo; settings: application rate 100 ppm, after 7 days
Experimental: Boophilus microplus Test (DIP)
Test animals: adult engorged Boophilus microplus females of the SP-resistant Parkhurst strain • Solvent: dimethyl sulphoxide
10 mg of active ingredient are dissolved in 0.5 ml of dimethyl sulphoxide. For the purpose of preparing a suitable formulation, the active ingredient solution is diluted with water to the concentration desired in each case.
This active ingredient formulation is pipetted into tubes. 8-10 ticks are transferred into a further tube with holes. The tube is immersed into the active ingredient formulation, and all ticks are completely wetted. After the liquid has run out, the ticks are transferred onto filter discs in plastic dishes and stored in a climate-controlled room. The efficacy is assessed after 7 days by the number of fertile eggs laid. Eggs whose fertility is not outwardly visible are stored in glass tubes in a climate-controlled cabinet until the larvae hatch. Efficacy of 100% means that none of the ticks has laid any fertile eggs.

[17] = system: Tick nymphs (Amblyomma hebraeum); experiment: Amblyomma hebaraeum test (AMBYHE), Example 9; assay type: in vivo; settings: application rate 100 ppm, immersed one minute, after 42 days
Experimental: Amblyomma hebaraeum Test (AMBYHE) • Solvent: dimethyl sulphoxide To prepare an appropriate active ingredient formulation, 10 mg of active ingredient are mixed with 0.5 ml of dimethyl sulphoxide, and the concentrate is diluted with water to the desired concentration. Tick nymphs (Amblyomma hebraeum) are placed into perforated plastic cups and immersed in the desired concentration for one minute. The ticks are transferred onto filter papers in a Petri dish and stored in a climate-controlled cabinet. After 42 days, the kill rate in % is determined. 100% means that all ticks were killed; 0% means that no ticks were killed.

SMILES | efficacy in % [4] [%] | efficacy in % [5] [%] | efficacy in % (fertile eggs laid) [6] [%] | logP [9] | efficacy in % [10] [%] | efficacy in % [11] [%] | efficacy in % (fertile eggs laid) [16] [%] | further results
O=C(/C=C/c1ccc(C(=O)NC2CC2)c(C(F)(F)F)c1)NC(c1cccc(C(F)(F)F)c1)C(F)(F)F (stereo not drawn) [Ia-23] | 83 | 100 | 100 | HPLC-MS: logP = 3.18; mass |  |  |  | efficacy in % (fertile eggs laid) [1]: 100%; kill rate in % (efficacy) [2]: 100%; kill rate in % (efficacy) [3]: 100%; kill rate in % (efficacy) [7]: 100%; efficacy in % ([8]; application rate 500 g/ha): 100%
O=C(/C=C/c1ccc(C(=O)NCc2ccccn2)c(Br)c1)NC(c1cccc(C(F)(F)F)c1)C(F)(F)F (stereo not drawn) [Ia-41] |  | 100 | 100 | HPLC-MS: logP = 2.76; mass | 100 | 100 |  | efficacy in % (fertile eggs laid) [1]: 100%; kill rate in % (efficacy) [2]: 100%; kill rate in % (efficacy) [3]: 90%; efficacy in % ([8]; application rate 500 g/ha): 90%
O=C(/C=C/c1ccc(C(=O)Nc2ccccn2)c(C(F)(F)F)c1)NC(c1cccc(C(F)(F)F)c1)C(F)(F)F (stereo not drawn) [Ia-54] | 100 | 100 | 100 | HPLC-MS: logP = 3.58; mass |  | 100 |  | kill rate in % (efficacy) [12]: 95%
O=C(/C=C/c1ccc(C(=O)Nc2ccc(Cl)nc2)c(C(F)(F)F)c1)NC(c1cccc(C(F)(F)F)c1)C(F)(F)F (stereo not drawn) [Ia-72] | 83 | 100 |  | HPLC-MS: logP = 3.73; mass |  |  |  | 
CC(CF)NC(=O)c1ccc(/C=C/C(=O)NC(c2cccc(C(F)(F)F)c2)C(F)(F)F)cc1C(F)(F)F (stereo not drawn) [Ia-75, N-(1-Fluoropropan-2-yl)-4-[(1E)-3-oxo-3-({2,2,2-trifluoro-1-[3-(trifluoromethyl)phenyl]-ethyl}amino)prop-1-en-1-yl]-2-(trifluoromethyl)benzamide] |  | 100 |  |  | 80 | 100 |  | pest or weed control at 0.02 mg ([6]; Rhipicephalus microplus, 168 h, read-out: efficacy in % (fertile eggs laid)): 100%; pest or weed control at 500 g/ha ([13]; Spodoptera frugiperda, foliar, 168 h, application rate 500 g/ha, read-out: efficacy in %): 100%; pest or weed control at 500 g/ha [14]: 100%; pest or weed control at 500 g/ha [15]: 100%; chromatographic logP ([9]; reverse-phase C18 HPLC column, pH 2.7, HPLC, C18 reverse phase, 43° C., acidic range pH 2.7, calibration with alkan-2-ones): 3.37
O=C(/C=C/c1ccc(C(=O)Nc2ccccn2)c(C(F)(F)F)c1)NC(c1cc(Cl)cc(C(F)(F)F)c1)C(F)(F)F (stereo not drawn) [Ia-82] | 83 | 100 | 100 | HPLC-MS: logP = 4.32; mass |  |  |  | 
CC(CF)NC(=O)c1ccc(/C=C/C(=O)NC(c2cccc(C(F)(F)F)c2)C(F)(F)F)cc1Cl (stereo not drawn) [Ia-112] |  | 100 | 100 | HPLC-MS: logP = 3.25 mass | 100 | 100 | 100 | 
C#CC(C)NC(=O)c1ccc(/C=C/C(=O)NC(c2cccc(C(F)(F)F)c2)C(F)(F)F)cc1Cl (stereo not drawn) [Ia-161] |  |  | 100 | HPLC-MS: logP = 3.43; mass |  |  | 98 | kill rate in % (efficacy) [17]: 100%; kill rate in % (efficacy) [7]: 80%; efficacy in % ([13]; application rate 100 g/ha): 100%; efficacy in % ([8]; application rate 100 g/ha): 90%
O=C(/C=C/c1ccc(C(=O)NC2CCC2)c(Cl)c1)NC(c1cccc(C(F)(F)F)c1)C(F)(F)F (stereo not drawn) [Ia-162] |  |  | 100 | HPLC-MS: logP = 3.59; mass |  |  | 100 | kill rate in % (efficacy) [17]: 100%; efficacy in % ([8]; application rate 100 g/ha): 100%

— patent US8889878B2, “Haloalky-substituted amides as insecticides and acaricides” (Bayer CropScience AG, priority 2009, dated 2014)
